Assay results from patent US6358885B1, “Substituted phenylheterocyclic herbicides” (Mississippi State University, priority 1992, dated 2002).

Tests used:
[1] = test system: arrowhead; test: Test D paddy water application plant response rating 0 to 100; type: in vivo, Sagittaria spp.; settings: 0 to 100 scale, approx. 21 days
Description: (§1) Plastic pots were partially filled with silt loam soil. The soil was then saturated with water. […] After planting, water levels were raised to 3 cm above the soil surface and maintained at this level throughout the test. Chemical treatments were formulated in a non-phytotoxic solvent and applied directly to the paddy water. Treated plants and controls were maintained in a greenhouse for approximately 21 days, after which all species were compared to controls and visually evaluated. […] A dash (-) response means no test result.

[2] = test system: waterchestnut; test: as above; type: in vivo, Eleocharis spp.; settings: 0 to 100 scale, approx. 21 days
Description: as §1

[3] = test system: alfalfa; test: Test G preemergence/postemergence greenhouse plant response rating 0 to 100; type: in vivo, Medicago ativa; settings: 0 to 100 scale
Summary of the method: (§2)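 Scoring: visual injury at 13 to 21 days post-application, compared with untreated controls. Planting: one species per pot in greenhouse medium. Dosing: compound in non-phytotoxic solvent, within one day of sowing for preemergence or at 2–4 leaves for postemergence.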

[4] = test system: annual bluegrass; test: as above; type: in vivo, Poa annua; settings: 0 to 100 scale
Summary of the method: as §2

[5] = test system: bermudagrass; test: as above; type: in vivo, Cynodon dactylon; settings: 0 to 100 scale
Summary of the method: as §2

[6] = test system: broadleaf signalgrass; test: as above; type: in vivo, Brachiaria plantaginea; settings: 0 to 100 scale
Summary of the method: as §2

[7] = test system: common purslane; test: as above; type: in vivo, Portulaca oleracea; settings: 0 to 100 scale
Summary of the method: as §2

[8] = test system: common ragweed; test: as above; type: in vivo, Ambrosia elatior; settings: 0 to 100 scale
Summary of the method: as §2

[9] = test system: dallisgrass; test: as above; type: in vivo, Paspalum dilatatum; settings: 0 to 100 scale
Summary of the method: as §2

[10] = test system: goosegrass; test: as above; type: in vivo, Eleusine indica; settings: 0 to 100 scale
Summary of the method: as §2

[11] = test system: guineagrass; test: as above; type: in vivo, Panicum maximum; settings: 0 to 100 scale
Summary of the method: as §2

[12] = test system: itchgrass; test: as above; type: in vivo, Rottboellia exaltata; settings: 0 to 100 scale
Summary of the method: as §2

[13] = test system: johnsongrass; test: as above; type: in vivo, Sorghum halepense; settings: 0 to 100 scale
Summary of the method: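 Visual injury scores, taken 13–21 d after spraying and judged against untreated pots; dash = not tested. Single-species greenhouse pots; test chemical dissolved in non-phytotoxic solvent. Pre: applied ≤1 d post-planting.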

[14] = test system: large crabgrass; test: as above; type: in vivo, Digitaria sanguinalis; settings: 0 to 100 scale
Summary of the method: as §2

[15] = test system: peanut; test: as above; type: in vivo, Arachis hypoagaea; settings: 0 to 100 scale
Summary of the method: as §2

[16] = test system: pitted morningglory; test: as above; type: in vivo, Ipomoea lacunosa; settings: 0 to 100 scale
Summary of the method: as §2

[17] = test system: purple nutsedge; test: as above; type: in vivo, Cyperus rotundus; settings: Rate 125 g/ha, 0 to 100 scale
Summary of the method: as §2

[18] = test system: sandbur; test: as above; type: in vivo, Cenchrus echinatus; settings: 0 to 100 scale
Summary of the method: as §2

[19] = test system: smooth crabgrass; test: as above; type: in vivo, Digitaria ischaemum; settings: 0 to 100 scale
Summary of the method: as §2

[20] = test system: yellow nutsedge; test: as above; type: in vivo, Cyperus esculentus; settings: Rate 125 g/ha, 0 to 100 scale
Summary of the method: as §2

For `C#CCN1C(=O)COc2cc(F)c(-c3nn4c(c3Cl)CCCC4)cc21` [Compound 34], the “Arrowhead plant response rating” value ([1]; Rate 4 g/ha) was 85, the “Arrowhead plant response rating” value ([1]; Rate 8 g/ha) was 90 and the “Arrowhead plant response rating” value ([1]; Rate 16 g/ha) was 90. For the same compound, the “Arrowhead plant response rating” value ([1]; Rate 32 g/ha) was 100, the “Arrowhead plant response rating” value ([1]; Rate 64 g/ha) was 100 and the “Waterchestnut plant response rating” value ([2]; Rate 4 g/ha) was 20. For the same compound, the “Waterchestnut plant response rating” value ([2]; Rate 8 g/ha) was 20, the “Waterchestnut plant response rating” value ([2]; Rate 32 g/ha) was 20 and the “Waterchestnut plant response rating” value ([2]; Rate 64 g/ha) was 20. The “Plant response rating, Alfalfa Var.” value ([3]; POSTEMERGENCE, Rate 125 g/ha) was 40, the “Plant response rating, Alfalfa Var.” value ([3]; POSTEMERGENCE, Rate 250 g/ha) was 60 and the “Plant response rating, Alfalfa Var.” value ([3]; PREEMERGENCE, Rate 125 g/ha) was 0. The “Plant response rating, Alfalfa Var.” value ([3]; PREEMERGENCE, Rate 250 g/ha) was 100, the “Plant response rating, Ann Bluegrass” value ([4]; POSTEMERGENCE, Rate 125 g/ha) was 0 and the “Plant response rating, Ann Bluegrass” value ([4]; POSTEMERGENCE, Rate 250 g/ha) was 0. For the same compound, the “Plant response rating, Ann Bluegrass” value ([4]; PREEMERGENCE, Rate 125 g/ha) was 0, the “Plant response rating, Ann Bluegrass” value ([4]; PREEMERGENCE, Rate 250 g/ha) was 50 and the “Plant response rating, Bermudagrass” value ([5]; POSTEMERGENCE, Rate 125 g/ha) was 0. The “Plant response rating, Bermudagrass” value ([5]; POSTEMERGENCE, Rate 250 g/ha) was 0, the “Plant response rating, Bermudagrass” value ([5]; PREEMERGENCE, Rate 125 g/ha) was 0 and the “Plant response rating, Bermudagrass” value ([5]; PREEMERGENCE, Rate 250 g/ha) was 0. The “Plant response rating, Brdlf Sgnlgrass” value ([6]; POSTEMERGENCE, Rate 125 g/ha) was 0, the “Plant response rating, Brdlf Sgnlgrass” value ([6]; POSTEMERGENCE, Rate 250 g/ha) was 0 and the “Plant response rating, Brdlf Sgnlgrass” value ([6]; PREEMERGENCE, Rate 125 g/ha) was 0. The “Plant response rating, Brdlf Sgnlgrass” value ([6]; PREEMERGENCE, Rate 250 g/ha) was 0, the “Plant response rating, Cmn Purslane” value ([7]; POSTEMERGENCE, Rate 125 g/ha) was 100 and the “Plant response rating, Cmn Purslane” value ([7]; POSTEMERGENCE, Rate 250 g/ha) was 100. The “Plant response rating, Cmn Purslane” value ([7]; PREEMERGENCE, Rate 125 g/ha) was 0, the “Plant response rating, Cmn Purslane” value ([7]; PREEMERGENCE, Rate 250 g/ha) was 100 and the “Plant response rating, Cmn Ragweed” value ([8]; POSTEMERGENCE, Rate 125 g/ha) was 70. The “Plant response rating, Cmn Ragweed” value ([8]; POSTEMERGENCE, Rate 250 g/ha) was 100, the “Plant response rating, Cmn Ragweed” value ([8]; PREEMERGENCE, Rate 125 g/ha) was 0 and the “Plant response rating, Cmn Ragweed” value ([8]; PREEMERGENCE, Rate 250 g/ha) was 0. For the same compound, the “Plant response rating, Dallisgrass” value ([9]; POSTEMERGENCE, Rate 125 g/ha) was 0, the “Plant response rating, Dallisgrass” value ([9]; POSTEMERGENCE, Rate 250 g/ha) was 0 and the “Plant response rating, Dallisgrass” value ([9]; PREEMERGENCE, Rate 125 g/ha) was 0. The “Plant response rating, Dallisgrass” value ([9]; PREEMERGENCE, Rate 250 g/ha) was 80, the “Plant response rating, Goosegrass” value ([10]; POSTEMERGENCE, Rate 125 g/ha) was 0 and the “Plant response rating, Goosegrass” value ([10]; POSTEMERGENCE, Rate 250 g/ha) was 0. For the same compound, the “Plant response rating, Goosegrass” value ([10]; PREEMERGENCE, Rate 125 g/ha) was 0, the “Plant response rating, Goosegrass” value ([10]; PREEMERGENCE, Rate 250 g/ha) was 30 and the “Plant response rating, Guineagrass” value ([11]; POSTEMERGENCE, Rate 125 g/ha) was 0. For the same compound, the “Plant response rating, Guineagrass” value ([11]; POSTEMERGENCE, Rate 250 g/ha) was 0, the “Plant response rating, Guineagrass” value ([11]; PREEMERGENCE, Rate 125 g/ha) was 0 and the “Plant response rating, Guineagrass” value ([11]; PREEMERGENCE, Rate 250 g/ha) was 0. For the same compound, the “Plant response rating, Itchgrass” value ([12]; POSTEMERGENCE, Rate 125 g/ha) was 0, the “Plant response rating, Itchgrass” value ([12]; POSTEMERGENCE, Rate 250 g/ha) was 0 and the “Plant response rating, Itchgrass” value ([12]; PREEMERGENCE, Rate 125 g/ha) was 0. The “Plant response rating, Itchgrass” value ([12]; PREEMERGENCE, Rate 250 g/ha) was 20, the “Plant response rating, Johnsongrass” value ([13]; POSTEMERGENCE, Rate 125 g/ha) was 0 and the “Plant response rating, Johnsongrass” value ([13]; POSTEMERGENCE, Rate 250 g/ha) was 0. The “Plant response rating, Johnsongrass” value ([13]; PREEMERGENCE, Rate 125 g/ha) was 0, the “Plant response rating, Johnsongrass” value ([13]; PREEMERGENCE, Rate 250 g/ha) was 0 and the “Plant response rating, Large Crabgrass” value ([14]; POSTEMERGENCE, Rate 125 g/ha) was 0. The “Plant response rating, Large Crabgrass” value ([14]; POSTEMERGENCE, Rate 250 g/ha) was 0, the “Plant response rating, Large Crabgrass” value ([14]; PREEMERGENCE, Rate 125 g/ha) was 0 and the “Plant response rating, Large Crabgrass” value ([14]; PREEMERGENCE, Rate 250 g/ha) was 60. For the same compound, the “Plant response rating, Peanuts” value ([15]; POSTEMERGENCE, Rate 125 g/ha) was 30, the “Plant response rating, Peanuts” value ([15]; POSTEMERGENCE, Rate 250 g/ha) was 0 and the “Plant response rating, Peanuts” value ([15]; PREEMERGENCE, Rate 125 g/ha) was 0. The “Plant response rating, Peanuts” value ([15]; PREEMERGENCE, Rate 250 g/ha) was 0, the “Plant response rating, Pit Morninglory” value ([16]; POSTEMERGENCE, Rate 125 g/ha) was 30 and the “Plant response rating, Pit Morninglory” value ([16]; POSTEMERGENCE, Rate 250 g/ha) was 50. The “Plant response rating, Pit Morninglory” value ([16]; PREEMERGENCE, Rate 125 g/ha) was 0, the “Plant response rating, Pit Morninglory” value ([16]; PREEMERGENCE, Rate 250 g/ha) was 30 and the “Plant response rating, Purple Nutsedge” value ([17]; POSTEMERGENCE) was 20. For the same compound, the “Plant response rating, Purple Nutsedge” value ([17]; PREEMERGENCE) was 0, the “Plant response rating, S. Sandbur” value ([18]; POSTEMERGENCE, Rate 125 g/ha) was 0 and the “Plant response rating, S. Sandbur” value ([18]; POSTEMERGENCE, Rate 250 g/ha) was 0. The “Plant response rating, S. Sandbur” value ([18]; PREEMERGENCE, Rate 125 g/ha) was 0, the “Plant response rating, S. Sandbur” value ([18]; PREEMERGENCE, Rate 250 g/ha) was 0 and the “Plant response rating, Smooth Crabgras” value ([19]; POSTEMERGENCE, Rate 125 g/ha) was 0. The “Plant response rating, Smooth Crabgras” value ([19]; POSTEMERGENCE, Rate 250 g/ha) was 0, the “Plant response rating, Smooth Crabgras” value ([19]; PREEMERGENCE, Rate 125 g/ha) was 0 and the “Plant response rating, Smooth Crabgras” value ([19]; PREEMERGENCE, Rate 250 g/ha) was 80. The “Plant response rating, Yellow Nutsedge” value ([20]; POSTEMERGENCE) was 0 and the “Plant response rating, Yellow Nutsedge” value ([20]; PREEMERGENCE) was 0.
